Assay results reported in patent US11865086B2, “Cinnamaldehyde derivative compounds and methods of use for cinnamaldehyde derivative compounds nicotine cessation” (Pacific University, priority 2018, dated 2024).
Read-outs that look alike come from different tables or passages of the source.

How the values were obtained:
[1] = rat, in vivo, po, 250 mg/kg; cited from earlier work
[2] = set-up: species or system humans; settings: human
Description: This has also observed in rats, for which full pharmacokinetic studies are available. Converting the dose in rats to humanized equivalent doses can estimate the doses necessary to achieve low μM concentrations of CA in humans. […] In rats a single 250 mg/kg oral dose generated a t-CA blood concentration of 7.6 μM. With the BSA method, t-CA doses of 32 mg and 320 mg per day are estimated to achieve concentrations of 0.1 and 1 μM in humans.

[3] = biological target: T1, CYP2A6 (Homo sapiens, UniProt P11509, K28S/Q25K/Q26K/R27T/W24A); assay: biochemical
T1 sequence (P11509 with tags, fused parts or gaps limits assumed): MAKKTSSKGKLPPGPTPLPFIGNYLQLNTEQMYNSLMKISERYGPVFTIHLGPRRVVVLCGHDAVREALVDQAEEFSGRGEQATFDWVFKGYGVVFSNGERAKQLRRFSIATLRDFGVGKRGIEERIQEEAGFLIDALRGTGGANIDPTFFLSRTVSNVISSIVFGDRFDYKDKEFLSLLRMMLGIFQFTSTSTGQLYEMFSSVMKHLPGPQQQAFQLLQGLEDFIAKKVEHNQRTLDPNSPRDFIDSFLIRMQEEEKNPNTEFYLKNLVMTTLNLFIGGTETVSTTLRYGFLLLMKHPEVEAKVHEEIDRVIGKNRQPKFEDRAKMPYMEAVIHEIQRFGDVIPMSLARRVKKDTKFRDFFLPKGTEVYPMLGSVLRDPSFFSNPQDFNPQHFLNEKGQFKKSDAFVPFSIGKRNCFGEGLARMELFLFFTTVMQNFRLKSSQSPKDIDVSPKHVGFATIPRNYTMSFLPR
Description: Spectral binding studies were conducted using purified heterologously expressed CYP2A6 in Escherichia coli. […] Absorbance changes (A386-A418) may be plotted against added ligand concentrations in order to determine dissociation constants.
In more detail, the CYP2A6 enzyme may be heterologously expressed in Escherichia coli and purified. The expression vector, pKK2A6dH may be used to express the enzyme. The vector contains a cDNA sequence that codes for human CYP2A6 with a deletion of the N-terminal transmembrane sequence, an alteration of several residues at the modified N-terminus to increase expression, and four histidine residues added at the C-terminus to aid in purification. […] Expression from the vector may be induced with the addition of IPTG to bacterial cultures. δ-Aminolevulinic acid is added during expression to supplement heme biosynthesis. The enzyme may be purified following previously reported protocols. Briefly, following cell disruption, the solubilized enzyme may be purified using Ni^2+-affinity chromatography and cation-exchange (CM sepharose) chromatography, which may lead to protein of high purity and P450 content.

[4] = in vivo; cited from earlier work
[5] = biological target: T2, CYP2A6 (Homo sapiens, UniProt P11509); assay: biochemical
T2 sequence (P11509 1-494): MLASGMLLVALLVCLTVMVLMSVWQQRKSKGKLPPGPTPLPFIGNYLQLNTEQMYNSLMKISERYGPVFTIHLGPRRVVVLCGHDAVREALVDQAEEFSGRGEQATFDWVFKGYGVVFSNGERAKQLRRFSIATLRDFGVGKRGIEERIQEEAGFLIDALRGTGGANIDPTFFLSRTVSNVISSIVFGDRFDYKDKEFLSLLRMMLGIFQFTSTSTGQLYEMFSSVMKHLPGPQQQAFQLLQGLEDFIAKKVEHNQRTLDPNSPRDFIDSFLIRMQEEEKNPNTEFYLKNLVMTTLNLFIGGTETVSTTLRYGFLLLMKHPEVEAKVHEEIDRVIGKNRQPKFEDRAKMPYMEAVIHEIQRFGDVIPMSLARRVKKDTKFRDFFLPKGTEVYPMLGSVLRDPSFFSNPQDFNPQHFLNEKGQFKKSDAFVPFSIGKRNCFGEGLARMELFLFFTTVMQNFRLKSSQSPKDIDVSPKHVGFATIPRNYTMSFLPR
Description: A 96-well plate assay and fluorescence spectroscopy may be used to quantify the product, 7-hydroxycoumarin.
Data was fit using GraphPad Prism.

[6] = biological target: T2, CYP2A6; assay: biochemical; remark: listed apart in the source
Description: (§1) Since this type of inhibition also requires that the inhibitor is initially metabolized by the target enzyme, MBIs may be identified by evaluating the inhibition in the presence and absence of cofactors that are required for activity, such as NADPH for CYPs.

[7] = biological target: T2, CYP2A6; settings: recombinant enzyme
Description: as §1

## O=C/C=C/c1ccccc1 [t-CA, trans-cinnamaldehyde]
[1]
  t-CA blood concentration: 7.6 µM
[2]; 0.1 μM
  estimated t-CA dose: 32 mg per day
[2]; 1 μM
  estimated t-CA dose: 320 mg per day
[3]
  Kd: 14.9 µM
[4]
  absorption upon oral administration: completely absorbed
[5]
  IC50: 6.9 ± 1.2 µM
[6]
  Ki: 27.2 µM
[7]
  time-dependent inhibition of CYP2A6, result in words: increases with time
